{
  "source": "paper PMC5424327",
  "about": "“Boosting LPMO-driven lignocellulose degradation by polyphenol oxidase-activated lignin building blocks” (Biotechnology for Biofuels, 2017)",
  "target": "T1, MtPPO7 (Thermothelomyces thermophilus, UniProt A0A1C9CXH9)",
  "T1 construct": "secreted enzyme over-expressed in homologous M. thermophila C1 (low protease/low (hemi-)cellulase strain), fractionated from culture broth; KX772412 is printed as 'UniProt' but has GenBank format",
  "T1 sequence (A0A1C9CXH9 19-420)": "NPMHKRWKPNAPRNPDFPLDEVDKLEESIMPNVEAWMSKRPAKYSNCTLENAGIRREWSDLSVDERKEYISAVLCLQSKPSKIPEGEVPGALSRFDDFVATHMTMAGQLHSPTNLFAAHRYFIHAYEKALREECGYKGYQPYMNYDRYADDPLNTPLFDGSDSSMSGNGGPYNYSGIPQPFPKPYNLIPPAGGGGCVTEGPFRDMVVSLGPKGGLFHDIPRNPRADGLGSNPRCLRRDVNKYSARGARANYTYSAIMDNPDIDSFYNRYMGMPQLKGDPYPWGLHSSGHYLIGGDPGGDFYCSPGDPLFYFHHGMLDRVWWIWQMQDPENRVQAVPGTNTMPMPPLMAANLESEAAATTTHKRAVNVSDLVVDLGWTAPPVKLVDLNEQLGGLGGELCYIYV",
  "assay": "UHPLC-UV-MSn of substrate conversion",
  "assay_type": "biochemical",
  "conditions": "2 mM substrate, 5.0 ug/mL enzyme, 50 mM potassium phosphate pH 6.0, 2.5 uM CuCl2, 50 °C, 24 h; ortho-hydroxylation",
  "data": [
    {"smiles": "COc1ccccc1O", "note": "[compound 9, Guaiacol]", "values": [
      {"measurement": "conversion (%)", "value": "The conversion of guaiacol by MtPPO7 resulted in the initial formation of 3-methoxycatechol"}
    ]}
  ]
}
